Converted amounts (≈) assume the structure as drawn. Where two headings read alike, the source gives them in different places.
Experiments:
bacteria [1] = assay: in vitro antibacterial activities, agar plate dilution method (MIC); format: cell-based; conditions: Mueller Hinton agar, inoculum 10⁶ CFU/mℓ, 37°C for 16 hours
Protocol: One platinum loopful of each test microorganism incubated overnight in Mueller Hinton broth, was inoculated to Mueller Hinton agar (inoculum size: 10⁶ CFU/mℓ). Such culture media contained antibacterial agents in various concentrations. After incubation at 37°C for 16 hours, the minimum inhibitory concentrations (MIC: µg/mℓ) were measured.

bacteria [2] = assay: disc diffusion test (method of Bauer et al.), antibacterial potency relative to thienamycin; format: cell-based; conditions: ratio to thienamycin (= 1.0) of geometrical average MIC, larger value = higher activity
Protocol: The antibacterial activities of the compounds of the present invention described in the Examples, as representative examples of the compound of the present invention, were measured by a disc diffusion test by the method of Bauer et al. (Amer. J. Clin. Pathol., vol. 45, p. 493 (1966)). Thienamycin or imipenem was used as the internal standard.
MIC of each test compound was calculated from the diameter of the inhibition ring formed by the disc containing the test compound by using the calculation formula reported by Humphrey and Lightbown (J. Gen. Microbiol., vol. 7, p. 129 (1952)). For each microorganism, a geometrical average of MIC was obtained, and the activity ratio to thienamycin was calculated.
The antibacterial activities are represented by the ratio to thienamycin (= 1.0), whereby the larger the numerical value, the higher the activities.

DHP-I = target: T1, DHP-I (Homo sapiens, UniProt P16444); assay: DHP-I susceptibility (method by Kropp et al.), ratio to imipenem; format: in vitro ADME
T1 sequence (P16444 17-385): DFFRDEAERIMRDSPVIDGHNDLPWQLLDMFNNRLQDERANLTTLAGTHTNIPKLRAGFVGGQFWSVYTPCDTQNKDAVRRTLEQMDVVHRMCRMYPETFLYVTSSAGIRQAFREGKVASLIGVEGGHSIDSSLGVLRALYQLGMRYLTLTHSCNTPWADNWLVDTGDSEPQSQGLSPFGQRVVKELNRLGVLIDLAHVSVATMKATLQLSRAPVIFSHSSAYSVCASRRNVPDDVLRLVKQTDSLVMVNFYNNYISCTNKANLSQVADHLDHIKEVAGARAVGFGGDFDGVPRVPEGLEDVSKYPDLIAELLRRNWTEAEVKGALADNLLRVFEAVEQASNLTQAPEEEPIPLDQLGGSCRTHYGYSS
Source text: The DHP-I susceptibility was quantitatively analyzed by the method by Kropp et al., Antimicrob. Agents Chemother., vol. 22, p.

[3] = Pseudomonas aeruginosa, 16 h, P. aeruginosa MB 5002, read-out: Minimum Inhibitory Concentration(MIC)
[4] = Pseudomonas aeruginosa, 16 h, P. aeruginosa MB 5178, read-out: Minimum Inhibitory Concentration(MIC)
[5] = Staphylococcus aureus, 209P / NIHJJC1, 16 h, S. aureus 209P NIHJ JC1, read-out: Minimum Inhibitory Concentration(MIC)
[6] = Staphylococcus aureus, 16 h, S. aureus BB 5939 (β-lactamase producing microorganism), read-out: Minimum Inhibitory Concentration(MIC)
[7] = Staphylococcus aureus, 16 h, S. aureus MB 4970, read-out: Minimum Inhibitory Concentration(MIC)
[8] = ratio to imipenem (=1.0), smaller value = higher stability

SMILES | MIC (bacteria [1]; [3]) | MIC (bacteria [1]; [4]) | MIC (bacteria [1]; [5]) | MIC (bacteria [1]; [6]) | MIC (bacteria [1]; [7]) | Relative antibacterial potency to thienamycin (bacteria [2]; Meth-R S. aureus) | Relative antibacterial potency to thienamycin (bacteria [2]; THM-R P.aeruginosa) | DHP-I susceptibility (DHP-I) | DHP-I susceptibility (DHP-I; [8]) | MIC (bacteria [1]; Pseudomonas aeruginosa, 16 h, read-out: Minimum Inhibitory Concentration(MIC), P. aeruginosa MB 5002) | MIC (bacteria [1]; Pseudomonas aeruginosa, 16 h, read-out: Minimum Inhibitory Concentration(MIC), P. aeruginosa MB 5178) | MIC (bacteria [1]; Staphylococcus aureus, 209P / NIHJJC1, 16 h, read-out: Minimum Inhibitory Concentration(MIC), S. aureus 209P NIHJ JC1) | MIC (bacteria [1]; Staphylococcus aureus, 16 h, read-out: Minimum Inhibitory Concentration(MIC), S. aureus BB 5939 (β-lactamase producing microorganism)) | MIC (bacteria [1]; Staphylococcus aureus, 16 h, read-out: Minimum Inhibitory Concentration(MIC), S. aureus MB 4970) | DHP-I susceptibility, ratio to imipenem (DHP-I; the smaller the numerical value, the higher the stability)
C[C@@H](O)[C@H]1C(=O)N2C(C(=O)O)=C(S[C@@H]3CN[C@H](/C=C/C(N)=O)C3)[C@H](C)[C@H]12 [BO-2171, (1R,5S,6S)-2-[(2S,4S)-2-[(E)-2-(aminocarbonyl)vinyl]pyrrolidin-4-ylthio]-6-[(R)-1-hydroxyethyl]-1-methyl-1-carbapen-2-em-3-carboxylic acid, reference compound] | 6.25 µg/mL (≈ 16.4 µM) | 12.5 µg/mL (≈ 32.8 µM) | 0.025 µg/mL (≈ 0.0655 µM) | 6.25 µg/mL (≈ 16.4 µM) | 0.025 µg/mL (≈ 0.0655 µM) | 7.68 | 3.28 | 0.3 | – | – | – | – | – | – | –
C[C@@H](O)[C@H]1C(=O)N2C(C(=O)O)=C(S[C@@H]3CN[C@H](/C=C\CN)C3)[C@H](C)[C@H]12 [Example 2, (1R,5S,6S)-2-[(2S,4S)-2-[(Z)-3-amino-1-propenyl]pyrrolidin-4-ylthio]-6-[(R)-1-hydroxyethyl]-1-methyl-1-carbapen-2-em-3-carboxylic acid] | 0.78 µg/mL (≈ 2.12 µM) | 1.56 µg/mL (≈ 4.25 µM) | < 0.006 µg/mL | 1.56 µg/mL (≈ 4.25 µM) | 0.012 µg/mL (≈ 0.0327 µM) | 12.9 | 15.2 | <0.05 | – | – | – | – | – | – | –
C/C(=C/[C@@H]1C[C@H](SC2=C(C(=O)O)N3C(=O)[C@H]([C@@H](C)O)[C@H]3[C@H]2C)CN1)CN.Cl [Example 7, (1R,5S,6S)-2-[(2S,4S)-2-[(Z)-3-amino-2-methyl-1-propenyl]pyrrolidin-4-ylthio]-6-[(R)-1-hydroxyethyl]-1-methyl-1-carbapen-2-em-3-carboxylic acid hydrochloride] | 0.78 µg/mL | 1.56 µg/mL | < 0.006 µg/mL | 1.56 µg/mL | < 0.006 µg/mL | 13.5 | 31.3 | – | <0.05 | – | – | – | – | – | –
CNC/C(C)=C\[C@@H]1C[C@H](SC2=C(C(=O)O)N3C(=O)[C@H]([C@@H](C)O)[C@H]3[C@H]2C)CN1.Cl [Example 9, (1R,5S,6S)-6-[(R)-1-hydroxyethyl]-2-[(2S,4S)-2-[(Z)-3-(N-methylamino)-2-methyl-1-propenyl]pyrrolidin-4-ylthio]-1-methyl-1-carbapen-2-em-3-carboxylic acid hydrochloride] | 0.78 µg/mL | 3.13 µg/mL | < 0.006 µg/mL | 1.56 µg/mL | < 0.006 µg/mL | 19.7 | 13.4 | – | 0.10 | – | – | – | – | – | –
C[C@@H](O)[C@H]1C(=O)N2C(C(=O)O)=C(SCCN=CN)C[C@H]12 [imipenem, (5R,6S,8R)-3-[[2-(formimidoylamino)ethyl]thio]-6-(1-hydroxyethyl)-7-oxo-1-azabicyclo[3.2.0]hept-2-en-2-carboxylic acid monohydrate, reference compound] | – | – | – | – | – | 2.57 | 2.0 | – | 1.0 | 1.56 µg/mL | 25 µg/mL | < 0.006 µg/mL | 6.25 µg/mL | 0.012 µg/mL | 1.0
